Source: ChEMBL document CHEMBL5442379, “ASAP - SARS-CoV-2 nsp3 macrodomain single point” (2024)

Target: Replicase polyprotein 1ab (Severe acute respiratory syndrome coronavirus 2) (UniProt P0DTD1)
Description: Functional biochemical assay to identify treatments for viral infectious disease that targets SARS-COV-2 nsp3 macrodomain, whereby the mechanism of action displaces an ADP-Ribose modified peptide from the binding site. Utilizing a time-resolved fluorescence method to measure binding by reading the emitted fluorescence intensity in two wavelengths.

O=C(c1ncc[nH]1)N1CCC(c2ccn3ncc(C(=O)N4CCCCC4)c3c2)CC1
inhibition (Concentration 49.75 uM, Number of replicates 2.0, Standard deviation 1.065 %): 18.5% | inhibition (Concentration 99.5 uM, Number of replicates 2.0, Standard deviation 3.121 %): 37.2%

Cc1cc(C(F)(F)F)nn1CCNc1ncnc2[nH]ccc12
inhibition (Concentration 50.0 uM, Number of replicates 2.0, Standard deviation 3.563 %): -3.04% | inhibition (Concentration 50.0 uM, Number of replicates 2.0, Standard deviation 6.31 %): 4.6% | inhibition (Concentration 100.0 uM, Number of replicates 2.0, Standard deviation 1.334 %): -2.21%

CC(C)[C@@H](CCN(C)C(=O)C1CCc2ccccc2CC1)Nc1ncnc2[nH]ccc12
inhibition (Concentration 49.75 uM, Number of replicates 2.0, Standard deviation 5.252 %): -5.62%

CC(C)[C@@H](Nc1ncnc2[nH]ccc12)C(=O)N(C)Cc1nnc2n1CCC2
inhibition (Concentration 49.75 uM, Number of replicates 2.0, Standard deviation 4.689 %): -8.89% | inhibition (Concentration 99.5 uM, Number of replicates 2.0, Standard deviation 1.151 %): -6.14%

O=C(c1c[nH]nn1)N1CCC(c2ccn3ncc(C(=O)N4CCCCC4)c3c2)CC1
inhibition (Concentration 49.75 uM, Number of replicates 2.0, Standard deviation 0.286 %): 14.7% | inhibition (Concentration 99.5 uM, Number of replicates 2.0, Standard deviation 4.61 %): 25.6%

Cc1nc(NC(=O)[C@@H]2CCCOC2)c2ccnc-2[nH]1
inhibition (Concentration 50.0 uM, Number of replicates 2.0, Standard deviation 1.269 %): -3.2%

FC(F)(F)c1nnc2n1CCN(c1ncnc3[nH]ccc13)C2
inhibition (Concentration 49.75 uM, Number of replicates 2.0, Standard deviation 1.459 %): -1.97% | inhibition (Concentration 99.5 uM, Number of replicates 2.0, Standard deviation 0.538 %): -1%

CO[C@@]1(C(=O)O)CCN(C(=O)c2ncnc3[nH]ccc23)C1
inhibition (Concentration 50.0 uM, Number of replicates 2.0, Standard deviation 2.289 %): -4.18% | inhibition (Concentration 100.0 uM, Number of replicates 2.0, Standard deviation 3.346 %): -3.71%

C=CCn1c(Cc2ccccc2)nnc1Sc1ncnc2[nH]ccc12
inhibition (Concentration 50.0 uM, Number of replicates 2.0, Standard deviation 4.634 %): -7.71%

O=C(Nc1cnc2[nH]ncc2c1)c1ccccc1CN1CCOCC1
inhibition (Concentration 50.0 uM, Number of replicates 2.0, Standard deviation 2.919 %): -3.24%

O=C(Nc1ccccc1)Nc1ccc(C(=O)N2CCOCC23CCC3)cc1
inhibition (Concentration 49.75 uM, Number of replicates 2.0, Standard deviation 0.885 %): -5.18% | inhibition (Concentration 99.5 uM, Number of replicates 2.0, Standard deviation 3.072 %): -3.18%

O=C(c1cccnc1O)N1CCC(c2ccn3ncc(C(=O)N4CCCCC4)c3c2)CC1
inhibition (Concentration 49.75 uM, Number of replicates 2.0, Standard deviation 3.415 %): -7.04% | inhibition (Concentration 99.5 uM, Number of replicates 2.0, Standard deviation 3.017 %): -3.94%

O=C(c1c[nH]c(=O)cn1)N1CCC(c2ccn3ncc(C(=O)N4CCCCC4)c3c2)CC1
inhibition (Concentration 99.5 uM, Number of replicates 2.0, Standard deviation 1.433 %): 45.8%

CC(C)[C@H]1N(c2ncnc3[nH]ccc23)CC12CCOCC2
inhibition (Concentration 49.75 uM, Number of replicates 2.0, Standard deviation 0.024 %): 27.6% | inhibition (Concentration 99.5 uM, Number of replicates 2.0, Standard deviation 0.45 %): 48%

Oc1cc(CNc2ncnc3[nH]cnc23)ccn1
inhibition (Concentration 50.0 uM, Number of replicates 2.0, Standard deviation 4.588 %): -0.821% | inhibition (Concentration 100.0 uM, Number of replicates 2.0, Standard deviation 5.781 %): -3.73%

Cc1cc(C(=O)Nc2[nH]nc3nc(O)ccc23)c2c(C)nn(C)c2n1
inhibition (Concentration 50.0 uM, Number of replicates 2.0, Standard deviation 0.36 %): -6.17% | inhibition (Concentration 100.0 uM, Number of replicates 2.0, Standard deviation 2.675 %): -3.32%

FC(F)(F)CO[C@@H]1CCCN(c2ncnc3[nH]ccc23)C1
inhibition (Concentration 50.0 uM, Number of replicates 2.0, Standard deviation 28.677 %): 22.2%

Cc1cccc(C)c1-n1nnnc1CSc1ncnc2[nH]cnc12
inhibition (Concentration 50.0 uM, Number of replicates 2.0, Standard deviation 4.544 %): 6.63%

COc1ccccc1CN(C[C@@H]1CCCO1)c1ncnc2[nH]ccc12
inhibition (Concentration 50.0 uM, Number of replicates 2.0, Standard deviation 1.448 %): 4.74%

O=C(c1ccc(O)nc1)N1CCC(c2ccn3ncc(C(=O)N4CCCCC4)c3c2)CC1
inhibition (Concentration 49.75 uM, Number of replicates 2.0, Standard deviation 5.093 %): 11% | inhibition (Concentration 99.5 uM, Number of replicates 2.0, Standard deviation 0.548 %): 26.5%

O=C(NCc1nc(-c2ccco2)n[nH]1)c1cc(=O)n2ncnc2[nH]1
inhibition (Concentration 50.0 uM, Number of replicates 2.0, Standard deviation 1.646 %): -2.6%

O=C(c1cnc[nH]1)N1CCC(c2ccn3ncc(C(=O)N4CCCCC4)c3c2)CC1
inhibition (Concentration 49.75 uM, Number of replicates 2.0, Standard deviation 1.741 %): 20.3% | inhibition (Concentration 99.5 uM, Number of replicates 2.0, Standard deviation 2.598 %): 35.3%

Cc1ccc(C(=O)N2CCC(c3ccn4ncc(C(=O)N5CCCCC5)c4c3)CC2)c(=O)[nH]1
inhibition (Concentration 49.75 uM, Number of replicates 2.0, Standard deviation 1.294 %): 3.31% | inhibition (Concentration 99.5 uM, Number of replicates 2.0, Standard deviation 2.376 %): 3.66%

O=C(c1cncc(O)n1)N1CCC(c2ccn3ncc(C(=O)N4CCCCC4)c3c2)CC1
inhibition (Concentration 49.75 uM, Number of replicates 2.0, Standard deviation 0.648 %): 26.6% | inhibition (Concentration 99.5 uM, Number of replicates 2.0, Standard deviation 1.31 %): 41.9%

CCN1CCN(C(=O)c2cnn3ccc(C4CCN(C(=O)c5ccccc5)CC4)cc23)CC1=O
inhibition (Concentration 49.75 uM, Number of replicates 2.0, Standard deviation 2.605 %): -8.63% | inhibition (Concentration 99.5 uM, Number of replicates 2.0, Standard deviation 4.496 %): -3.46%

O=C(Nc1nc2ccc(F)cc2[nH]1)c1cc(N2CCNC2=O)ccc1F
inhibition (Concentration 50.0 uM, Number of replicates 2.0, Standard deviation 3.412 %): -7.71%

C[C@@H](O)[C@@H]1CN(C(=O)c2ncnc3[nH]ccc23)CCO1
inhibition (Concentration 50.0 uM, Number of replicates 2.0, Standard deviation 0.15 %): -3.13%

FC(F)(F)c1nc(NC[C@H]2CCCO2)c2nc[nH]c2n1
inhibition (Concentration 50.0 uM, Number of replicates 2.0, Standard deviation 2.867 %): 2.5%

O=C(Cc1n[nH]c2c1CCCC2)Nc1cnc2[nH]ncc2c1
inhibition (Concentration 50.0 uM, Number of replicates 2.0, Standard deviation 2.447 %): -1.26%

CN(Cc1cn(C)nn1)C(=O)c1cnn2ccc(C3CCN(C(=O)c4ccccc4)CC3)cc12
inhibition (Concentration 49.75 uM, Number of replicates 2.0, Standard deviation 4.768 %): 2.17% | inhibition (Concentration 99.5 uM, Number of replicates 2.0, Standard deviation 1.859 %): 1.34%

O=C(Cc1ccns1)Nc1ncnc2[nH]cnc12
inhibition (Concentration 49.75 uM, Number of replicates 2.0, Standard deviation 7.374 %): -9.5% | inhibition (Concentration 99.5 uM, Number of replicates 2.0, Standard deviation 4.303 %): -3.24%

CCc1n[nH]c(NC(=O)c2ccc(NC(=O)Nc3ccccc3)cc2)c1Br
inhibition (Concentration 49.75 uM, Number of replicates 2.0, Standard deviation 2.077 %): -5.57% | inhibition (Concentration 99.5 uM, Number of replicates 2.0, Standard deviation 0.313 %): 0.467%

Cc1[nH]c2ncnc(NC(=O)CCc3ccccc3)c2c1C
inhibition (Concentration 50.0 uM, Number of replicates 2.0, Standard deviation 2.066 %): 5.02%

O=C(Nc1ccccc1)Nc1ccc(C(=O)NCc2ccnc(F)c2)cc1
inhibition (Concentration 49.75 uM, Number of replicates 2.0, Standard deviation 0.77 %): -0.36% | inhibition (Concentration 99.5 uM, Number of replicates 2.0, Standard deviation 1.377 %): 4.92%

COc1cc(CNc2cnc3[nH]ncc3c2)ccc1Cl
inhibition (Concentration 50.0 uM, Number of replicates 2.0, Standard deviation 4.023 %): -2.79%

Cc1ncc(NCc2ncn(C)c2Cl)cc1C(N)=O
inhibition (Concentration 50.0 uM, Number of replicates 2.0, Standard deviation 1.923 %): 2.41%

C#Cc1cccc(NC(=O)CN(C)c2ncnc3[nH]ccc23)c1
inhibition (Concentration 50.0 uM, Number of replicates 2.0, Standard deviation 4.462 %): 4.4%

CC1(C)CNCCN1C(=O)c1ccc(NC(=O)Nc2ccccc2)cc1
inhibition (Concentration 49.75 uM, Number of replicates 2.0, Standard deviation 5.654 %): 2.24% | inhibition (Concentration 99.5 uM, Number of replicates 2.0, Standard deviation 1.022 %): 1.39%

Cc1noc(CCCNC(=O)c2ncnc3[nH]ccc23)n1
inhibition (Concentration 50.0 uM, Number of replicates 2.0, Standard deviation 1.028 %): -5.13%

OCc1cn([C@@H]2CCCN(c3ncnc4[nH]ccc34)C2)nn1
inhibition (Concentration 50.0 uM, Number of replicates 2.0, Standard deviation 2.708 %): -0.682%
